Laboratory results as given in patent publication US12516056B2, “Compounds for inhibition of janus kinase 1” (MANKIND PHARMA LTD., priority 2019, dated 2026).

What was measured:
Recombinant JAK1 = target: T1, Recombinant JAK1 (Homo sapiens, UniProt P23458); assay: JAK biochemical assay (LANCE Ultra TR-FRET), JAK1; conditions: recombinant JAK1, TR-FRET; read-out: Biochemical Assay (μM) JAK1
T1 construct: purchased Carna Biosciences
Method in brief: (§1)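 Kinase reactions ran in buffer of 50 mM HEPES pH 7.5 with 1 mM EGTA, 10 mM MgCl2, 2 mM DTT and 0.01% Tween-20, using recombinant enzyme. Phosphorylated ULight substrate was detected by TR-FRET, and compound effect expressed as % inhibition against vehicle.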

Recombinant JAK2 = target: T2, Recombinant JAK2 (Homo sapiens, UniProt O60674); assay: JAK biochemical assay (LANCE Ultra TR-FRET), JAK2; conditions: recombinant JAK2, TR-FRET; read-out: Biochemical Assay (μM) JAK2
T2 construct: purchased Carna Biosciences
T2 sequence (O60674 whole entry): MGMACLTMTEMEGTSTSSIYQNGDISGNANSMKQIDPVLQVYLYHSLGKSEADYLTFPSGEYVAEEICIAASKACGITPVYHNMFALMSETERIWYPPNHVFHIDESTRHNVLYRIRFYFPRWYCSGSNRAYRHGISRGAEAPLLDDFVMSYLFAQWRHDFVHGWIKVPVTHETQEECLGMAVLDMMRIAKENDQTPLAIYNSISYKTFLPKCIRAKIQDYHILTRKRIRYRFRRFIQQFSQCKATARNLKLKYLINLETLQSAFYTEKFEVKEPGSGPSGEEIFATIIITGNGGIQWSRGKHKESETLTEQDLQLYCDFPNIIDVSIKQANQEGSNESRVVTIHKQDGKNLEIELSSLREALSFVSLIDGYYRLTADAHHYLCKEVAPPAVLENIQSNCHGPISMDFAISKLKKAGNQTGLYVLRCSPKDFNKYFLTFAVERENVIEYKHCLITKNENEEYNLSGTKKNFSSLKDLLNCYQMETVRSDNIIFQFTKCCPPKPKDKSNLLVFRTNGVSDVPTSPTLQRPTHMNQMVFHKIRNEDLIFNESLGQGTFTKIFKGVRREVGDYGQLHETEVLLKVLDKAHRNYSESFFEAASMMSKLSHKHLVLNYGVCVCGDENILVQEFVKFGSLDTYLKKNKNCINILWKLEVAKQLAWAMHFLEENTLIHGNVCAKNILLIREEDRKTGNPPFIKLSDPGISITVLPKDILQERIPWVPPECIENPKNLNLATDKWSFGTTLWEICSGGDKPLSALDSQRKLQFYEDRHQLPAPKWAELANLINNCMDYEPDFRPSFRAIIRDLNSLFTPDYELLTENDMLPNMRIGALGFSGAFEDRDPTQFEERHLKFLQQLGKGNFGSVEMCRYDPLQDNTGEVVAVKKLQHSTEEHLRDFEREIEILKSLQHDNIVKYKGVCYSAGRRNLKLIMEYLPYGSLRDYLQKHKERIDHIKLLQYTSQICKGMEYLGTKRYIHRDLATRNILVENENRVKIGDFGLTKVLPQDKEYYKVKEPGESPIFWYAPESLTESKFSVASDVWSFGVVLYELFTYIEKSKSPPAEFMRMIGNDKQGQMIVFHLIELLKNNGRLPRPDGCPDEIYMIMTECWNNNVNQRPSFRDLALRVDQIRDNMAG
Method in brief: as §1

[1] = tested on: STAT3 phosphorylation by IL-6 in TF-1 cells; assay: JAK cellular assay: STAT3 phosphorylation by IL-6 in TF-1 cells (HTRF); assay type: cell-based; conditions: Homo sapiens, TF-1, TF-1 cells, IL-6 30 ng/ml, pSTAT3 HTRF; read-out: Cell Based Assay (μM) TF-1/IL-6/pSTAT3
Method in brief: (§2)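 TF-1 cells starved overnight in low-serum OptiMEM, then 120,000/well in RPMI, preincubated with compound 30 min at 37 °C (0.2% DMSO final). Stimulation 20 min with IL-6 30 ng/ml (pSTAT3) or GMCSF 5 ng/ml (pSTAT5); lysate phospho-STAT by HTRF, unstimulated background subtracted.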

Recombinant JAK3 = target: T3, Recombinant JAK3 (Homo sapiens, UniProt P52333); assay: JAK biochemical assay (LANCE Ultra TR-FRET), JAK3; conditions: recombinant JAK3, TR-FRET; read-out: Biochemical Assay (μM) JAK3
T3 construct: purchased Carna Biosciences
T3 sequence (P52333 1-1124): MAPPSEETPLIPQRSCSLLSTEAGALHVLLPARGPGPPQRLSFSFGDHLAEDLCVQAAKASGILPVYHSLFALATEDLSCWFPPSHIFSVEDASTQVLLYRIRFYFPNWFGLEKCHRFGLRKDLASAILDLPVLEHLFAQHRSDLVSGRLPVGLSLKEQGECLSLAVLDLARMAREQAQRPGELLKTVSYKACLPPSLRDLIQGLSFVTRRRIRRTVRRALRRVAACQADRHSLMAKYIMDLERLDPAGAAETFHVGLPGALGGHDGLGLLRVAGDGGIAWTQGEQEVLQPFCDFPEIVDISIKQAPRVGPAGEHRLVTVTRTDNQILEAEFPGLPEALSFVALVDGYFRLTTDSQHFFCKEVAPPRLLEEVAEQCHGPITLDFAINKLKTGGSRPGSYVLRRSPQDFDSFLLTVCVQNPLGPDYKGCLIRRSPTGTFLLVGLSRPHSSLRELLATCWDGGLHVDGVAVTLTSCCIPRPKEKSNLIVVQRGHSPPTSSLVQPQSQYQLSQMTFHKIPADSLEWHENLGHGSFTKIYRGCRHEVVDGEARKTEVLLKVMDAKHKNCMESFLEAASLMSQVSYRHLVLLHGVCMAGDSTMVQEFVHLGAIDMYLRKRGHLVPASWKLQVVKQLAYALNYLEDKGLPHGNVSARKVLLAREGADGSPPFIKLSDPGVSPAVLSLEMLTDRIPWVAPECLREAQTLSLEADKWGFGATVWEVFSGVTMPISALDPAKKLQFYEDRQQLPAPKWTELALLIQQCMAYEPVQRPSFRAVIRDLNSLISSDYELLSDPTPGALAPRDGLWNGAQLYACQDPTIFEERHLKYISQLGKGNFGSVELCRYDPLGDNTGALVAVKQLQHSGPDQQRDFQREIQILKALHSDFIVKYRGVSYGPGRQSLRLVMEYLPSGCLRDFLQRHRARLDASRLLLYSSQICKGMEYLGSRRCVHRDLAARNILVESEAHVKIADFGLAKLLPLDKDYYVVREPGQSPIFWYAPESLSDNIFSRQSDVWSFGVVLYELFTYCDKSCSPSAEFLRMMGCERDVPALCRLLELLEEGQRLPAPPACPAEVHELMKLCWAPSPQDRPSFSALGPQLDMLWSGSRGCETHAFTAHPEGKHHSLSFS
Method in brief: as §1

Recombinant TYK2 = target: T4, Recombinant TYK2 (Homo sapiens, UniProt P29597); assay: JAK biochemical assay (LANCE Ultra TR-FRET), TYK2; conditions: recombinant TYK2, TR-FRET; read-out: Biochemical Assay (μM) TYK2
T4 construct: purchased Carna Biosciences
T4 sequence (P29597 whole entry): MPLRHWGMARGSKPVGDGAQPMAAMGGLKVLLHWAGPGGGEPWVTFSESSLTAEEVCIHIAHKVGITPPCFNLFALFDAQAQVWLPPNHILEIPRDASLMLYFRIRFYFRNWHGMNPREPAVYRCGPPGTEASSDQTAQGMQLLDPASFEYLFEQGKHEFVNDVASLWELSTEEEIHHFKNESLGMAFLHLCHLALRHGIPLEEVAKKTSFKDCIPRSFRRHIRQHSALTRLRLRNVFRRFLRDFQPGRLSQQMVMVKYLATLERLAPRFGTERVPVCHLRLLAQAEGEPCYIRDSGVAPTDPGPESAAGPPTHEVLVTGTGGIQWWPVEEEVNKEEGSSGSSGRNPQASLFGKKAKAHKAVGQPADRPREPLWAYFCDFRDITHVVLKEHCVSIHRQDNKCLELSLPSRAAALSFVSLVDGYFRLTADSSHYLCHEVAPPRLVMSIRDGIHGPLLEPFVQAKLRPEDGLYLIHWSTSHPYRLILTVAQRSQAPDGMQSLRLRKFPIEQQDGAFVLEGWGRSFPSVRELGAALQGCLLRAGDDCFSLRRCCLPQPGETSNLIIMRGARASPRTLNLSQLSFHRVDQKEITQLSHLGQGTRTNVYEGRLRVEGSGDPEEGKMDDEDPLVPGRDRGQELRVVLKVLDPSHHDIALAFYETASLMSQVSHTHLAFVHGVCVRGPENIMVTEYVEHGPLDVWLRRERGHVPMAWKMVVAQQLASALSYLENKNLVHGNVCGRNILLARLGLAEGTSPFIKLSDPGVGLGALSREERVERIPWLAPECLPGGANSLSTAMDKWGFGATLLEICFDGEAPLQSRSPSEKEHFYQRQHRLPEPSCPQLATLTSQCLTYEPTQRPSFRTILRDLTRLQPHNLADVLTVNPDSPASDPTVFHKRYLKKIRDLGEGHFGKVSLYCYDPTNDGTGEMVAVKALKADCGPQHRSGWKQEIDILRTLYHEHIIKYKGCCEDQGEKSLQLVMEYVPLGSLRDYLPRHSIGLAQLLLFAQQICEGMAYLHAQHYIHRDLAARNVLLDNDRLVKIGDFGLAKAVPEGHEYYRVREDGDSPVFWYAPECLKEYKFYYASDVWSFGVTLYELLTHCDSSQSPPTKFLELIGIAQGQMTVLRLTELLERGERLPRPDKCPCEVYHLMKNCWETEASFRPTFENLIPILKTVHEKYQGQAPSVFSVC
Method in brief: as §1

[2] = tested on: STAT5 phosphorylation by GMCSF in TF-1 cells; assay: JAK cellular assay: STAT5 phosphorylation by GMCSF in TF-1 cells (HTRF); assay type: cell-based; conditions: Homo sapiens; TF-1 cells, GMCSF 5 ng/ml, pSTAT5 HTRF; read-out: Cell Based Assay (μM) TF-1/GMCSF/pSTAT5
Method in brief: as §2

T1 sequence (P23458 whole entry): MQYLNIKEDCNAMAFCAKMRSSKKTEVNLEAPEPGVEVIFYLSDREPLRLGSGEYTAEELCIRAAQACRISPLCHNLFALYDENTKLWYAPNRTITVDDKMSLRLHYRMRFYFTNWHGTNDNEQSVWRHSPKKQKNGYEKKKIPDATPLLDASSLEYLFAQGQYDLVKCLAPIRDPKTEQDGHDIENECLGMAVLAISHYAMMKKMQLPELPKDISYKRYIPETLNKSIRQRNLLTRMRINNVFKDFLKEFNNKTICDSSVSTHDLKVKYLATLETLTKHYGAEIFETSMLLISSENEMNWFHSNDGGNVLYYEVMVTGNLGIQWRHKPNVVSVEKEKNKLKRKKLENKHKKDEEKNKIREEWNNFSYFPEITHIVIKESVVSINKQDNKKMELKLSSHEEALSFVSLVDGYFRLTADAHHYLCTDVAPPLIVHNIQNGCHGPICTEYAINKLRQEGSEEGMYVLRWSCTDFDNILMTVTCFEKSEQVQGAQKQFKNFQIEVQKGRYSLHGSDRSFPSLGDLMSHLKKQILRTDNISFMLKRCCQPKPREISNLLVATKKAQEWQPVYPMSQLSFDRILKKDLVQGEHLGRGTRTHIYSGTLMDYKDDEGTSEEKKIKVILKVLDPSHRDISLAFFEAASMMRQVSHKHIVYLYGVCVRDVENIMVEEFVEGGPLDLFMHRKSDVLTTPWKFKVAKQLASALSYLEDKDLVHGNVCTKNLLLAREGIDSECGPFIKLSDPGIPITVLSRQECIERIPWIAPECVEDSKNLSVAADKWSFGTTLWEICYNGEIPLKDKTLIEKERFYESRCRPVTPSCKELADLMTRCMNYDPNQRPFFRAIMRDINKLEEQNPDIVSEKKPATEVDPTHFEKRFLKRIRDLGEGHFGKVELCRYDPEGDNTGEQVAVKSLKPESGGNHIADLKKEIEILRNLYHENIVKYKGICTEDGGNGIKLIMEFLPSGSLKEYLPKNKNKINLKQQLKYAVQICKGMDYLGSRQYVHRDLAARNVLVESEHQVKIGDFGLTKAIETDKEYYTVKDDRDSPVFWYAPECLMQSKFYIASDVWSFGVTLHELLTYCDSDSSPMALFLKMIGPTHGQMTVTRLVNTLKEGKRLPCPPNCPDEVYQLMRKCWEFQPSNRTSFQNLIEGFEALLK

Row | Structure (SMILES) | IC50 (Recombinant JAK1) [µM] | IC50 (Recombinant JAK2) [µM] | IC50 [1] [µM] | IC50 (Recombinant JAK3) [µM] | IC50 (Recombinant TYK2) [µM] | IC50 [2] [µM]
1 | N#CCC(c1ccc(-n2cc(-c3ccnc4[nH]cnc34)cn2)nc1)C(F)(F)F (stereo not drawn) [Example 1123, 3-(6-(4-(3H-imidazo[4,5-b]pyridin-7-yl)-1H-pyrazol-1-yl)pyridin-3-yl)-4,4,4-trifluorobutanenitrile] | > 0.1 | > 0.5 | > 1 | > 0.1 | > 1 | 10
2 | CC(F)(c1ccc(-n2cc(-c3ccnc4[nH]cnc34)cn2)nc1)C(F)(F)F (stereo not drawn) [Example 1128, 7-(1-(5-(1,1,1,2-tetrafluoropropan-2-yl)pyridin-2-yl)-1H-pyrazol-4-yl)-3H-imidazo[4,5-b]pyridine] | < 0.1 | > 0.5 | > 1 | > 0.5 | > 1 | > 10
3 | OC(c1ccc(-n2cc(-c3ccnc4[nH]cnc34)cn2)nc1)(C1CCCCC1)C(F)(F)F (stereo not drawn) [Example 1130, 1-(6-(4-(3H-imidazo[4,5-b]pyridin-7-yl)-1H-pyrazol-1-yl)pyridin-3-yl)-1-cyclohexyl-2,2,2-trifluoroethanol] | > 0.1 | > 0.1 | > 1 | > 0.1 | > 1 | > 10
4 | OC(c1ccc(-n2cc(-c3ccnc4[nH]cnc34)cn2)nc1)(C1CCNCC1)C(F)(F)F (stereo not drawn) [Example 1135, 1-(6-(4-(3H-imidazo[4,5-b]pyridin-7-yl)-1H-pyrazol-1-yl)pyridin-3-yl)-2,2,2-trifluoro-1-(piperidin-4-yl)ethan-1-ol] | < 0.1 | < 0.1 | > 1 | < 0.1 | < 0.1 | > 10
5 | NS(=O)(=O)CCC(c1ccc(-n2cc(-c3ccnc4[nH]cnc34)cn2)nc1)C(F)(F)F (stereo not drawn) [Example 1141, 3-(6-(4-(3H-imidazo[4,5-b]pyridin-7-yl)-1H-pyrazol-1-yl)pyridin-3-yl)-4,4,4-trifluorobutane-1-sulfonamide] | < 0.1 | < 0.1 | < 1 | < 0.1 | > 1 | > 10
6 | N#CCOC(c1ccc(-n2cc(-c3ccnc4[nH]cnc34)cn2)nc1)C(F)(F)F (stereo not drawn) [Example 1157, 2-(1-(6-(4-(3H-imidazo[4,5-b]pyridin-7-yl)-1H-pyrazol-1-yl)pyridin-3-yl)-2,2,2-trifluoroethoxy)acetonitrile] | < 0.1 | < 0.1 | < 1 | < 0.1 | > 0.5 | > 10
7 | O=C(NCC(F)(F)F)C(c1ccc(-n2cc(-c3ccnc4[nH]cnc34)cn2)nc1)C1CC1 (stereo not drawn) [Example 1167, 2-(6-(4-(3H-imidazo[4,5-b]pyridin-7-yl)-1H-pyrazol-1-yl)pyridin-3-yl)-2-cyclopropyl-N-(2,2,2-trifluoroethyl)acetamide] | 0.096 | 0.3 | 10 | 0.173 | > 10 | > 10
8 | OC(c1ccc(-n2cc(-c3ccnc4[nH]cnc34)cn2)cn1)C(F)(F)F (stereo not drawn) [Example 1173, 1-(5-(4-(3H-imidazo[4,5-b]pyridin-7-yl)-1H-pyrazol-1-yl)pyridin-2-yl)-2,2,2-trifluoroethanol] | < 0.1 | < 0.1 | 10 | < 0.1 | > 1 | > 10
9 | N#CC1CCN(C(=O)n2cc(-c3ccnc4[nH]cnc34)cn2)C1 (stereo not drawn) [Example 1177, 1-(4-(3H-imidazo[4,5-b]pyridin-7-yl)-1H-pyrazole-1-carbonyl)pyrrolidine-3-carbonitrile] | > 1 | < 0.5 | > 10 | > 1 | > 0.5 | > 10
10 | CS(=O)(=O)NC(c1ccc(-n2cc(-c3ccnc4[nH]cnc34)cn2)nc1)C(F)(F)F (stereo not drawn) [Example 1187] | < 0.1 | > 0.1 | > 1 | < 0.1 | > 1 | > 1
11 | OCC(Cc1ccc(-n2cc(-c3ccnc4[nH]cnc34)cn2)nc1)C(F)(F)F (stereo not drawn) [Example 1191, 3-(6-(4-(3H-imidazo[4,5-b]pyridin-7-yl)-1H-pyrazol-1-yl)pyridin-3-yl)-2-(trifluoromethyl)propan-1-ol] | < 0.1 | < 0.1 | > 1 | < 0.1 | > 1 | > 1

Further lines, results first:

Row | IC50 (Recombinant JAK1) [µM] | IC50 (Recombinant JAK2) [µM] | IC50 [1] [µM] | IC50 (Recombinant JAK3) [µM] | IC50 (Recombinant TYK2) [µM] | IC50 [2] [µM] | Structure (SMILES)
12 | > 0.5 | > 1 | > 1 | > 1 | > 1 | > 10 | COC(c1ccc(-n2cc(-c3ccnc4[nH]cnc34)cn2)nc1)(C1CC1)C(F)(F)F (stereo not drawn) [Example 1127, 7-(1-(5-(1-cyclopropyl-2,2,2-trifluoro-1-methoxyethyl)pyridin-2-yl)-1H-pyrazol-4-yl)-3H-imidazo[4,5-b]pyridine]
13 | < 0.1 | > 0.1 | > 1 | > 0.1 | > 1 | > 10 | CS(=O)(=O)CC(c1ccc(-n2cc(-c3ccnc4[nH]cnc34)cn2)nc1)C(F)(F)F (stereo not drawn) [Example 1138, 7-(1-(5-(1,1,1-trifluoro-3-(methylsulfonyl)propan-2-yl)pyridin-2-yl)-1H-pyrazol-4-yl)-3H-imidazo[4,5-b]pyridine]
14 | < 0.1 | > 0.1 | > 1 | > 0.1 | > 1 | > 1 | CC(c1ccc(-n2cc(-c3ccnc4[nH]cnc34)cn2)nc1)S(C)(=O)=O (stereo not drawn) [Example 1158, 7-(1-(5-(1-(methylsulfonyl)ethyl)pyridin-2-yl)-1H-pyrazol-4-yl)-3H-imidazo[4,5-b]pyridine]
15 | > 0.1 | > 0.1 | > 10 | > 0.05 | > 1 | > 10 | OC(c1cccc(-n2cc(-c3ccnc4[nH]cnc34)cn2)n1)C(F)(F)F (stereo not drawn) [Example 1170, 1-(6-(4-(3H-imidazo[4,5-b]pyridin-7-yl)-1H-pyrazol-1-yl)pyridin-2-yl)-2,2,2-trifluoroethanol]
16 | > 1 | > 1 | > 10 | > 1 | > 1 | > 10 | COC(c1cccc(-n2cc(-c3ccnc4[nH]cnc34)cn2)n1)C(F)(F)F (stereo not drawn) [Example 1171, 7-(1-(6-(2,2,2-trifluoro-1-methoxyethyl)pyridin-2-yl)-1H-pyrazol-4-yl)-3H-imidazo[4,5-b]pyridine]
17 | < 1 | < 1 | > 1 | < 1 | < 1 | > 1 | N#CCC(C1CCCC1)n1cc(-c2ccnc3[nH]c(-c4ccccc4)nc23)cn1 (stereo not drawn) [Example 1180, 3-cyclopentyl-3-(4-(2-phenyl-3H-imidazo[4,5-b]pyridin-7-yl)-1H-pyrazol-1-yl)propanenitrile]
18 | > 0.1 | > 0.5 | 1 | > 0.1 | > 1 | > 1 | OC(Cc1ccc(-n2cc(-c3ccnc4[nH]cnc34)cn2)nc1)C(F)(F)F (stereo not drawn) [Example 1183, 3-(6-(4-(3H-imidazo[4,5-b]pyridin-7-yl)-1H-pyrazol-1-yl)pyridin-3-yl)-1,1,1-trifluoropropan-2-ol]
